Source: paper PMC9961069 (Metabolites, 2023)
“Also recorded” adds a separate entry of the source.

Tests used:
MDA-MB-231 cells = assay: LC/MS-based metabolite profiling; type: cell-based, Human; conditions: 24 h; for AICAR levels with FA treatment / Orotate levels with FA supplementation: 10 μM + 300 μg/mL FA; for AICAR levels / Orotate levels / UDP level: 10 μM; for AICAR levels / Orotate levels: inhibitor alone; for UDP level: inhibitor alone versus DMSO
Description: For characterization by mass spectrometry, MDA-MB-231 cells were seeded at a density of 3 × 10^5 cells per well in 6-well plates. […] DMSO only and DMSO + folinic acid controls were also performed. Per condition, biological quadruplicates of approximately one million cells were harvested, washed briefly with 1 mL of 0.9% NaCl (prepared in LC/MS-grade water Fisher Scientific W6500), and extracted in 500 μL prechilled extraction buffer (80% LC/MS-grade methanol, 20% 125 mM ammonium acetate, 12.5 mM sodium ascorbate prepared in LC/MS-grade water and supplemented with aminopterin (catalog no.: 16.330; Schircks Laboratories) and isotopically labeled internal standards (17 amino acids and reduced glutathione [Cambridge Isotope Laboratories; MSK- A2-1.2 and CNLM-6245-10])) using a cell scraper. After centrifugation for 10 min, 4 °C, at maximum speed on a benchtop centrifuge (Eppendorf), the cleared supernatant was transferred to a new tube and dried using a nitrogen dryer (Reacti-Vap™ Evaporator, Thermo Fisher Scientific, TS-18826) while on ice. Once the drying process was completed, samples were reconstituted in 50 µL QReSS water (Cambridge Isotope Laboratories, MSK-QRESS-KIT) by brief sonication in a 4 °C water bath. Extracted metabolites were spun for 3 min, 4 °C, at maximum speed on a bench-top centrifuge, and cleared supernatant was transferred to LC/MS microvials (National Scientific, C5000-45B). Three microliters of each sample were pooled and serially diluted 3- and 10-fold to be used as quality controls throughout the run of each batch. Unlabeled QReSS metabolites (Cambridge Isotope Laboratories, MSK-QReSS-US-KIT) and unlabeled amino acid mix standard (Cambridge Isotope Laboratories, MSK-A2-US-1.2) were also included in the run to ensure high-quality metabolomics results.
One microliter (equivalent to 2 × 10^4 cells) of the reconstituted sample was injected into a ZIC-pHILIC 150 × 2.1 mm (5 µm particle size) column (EMD Millipore) operated on a Vanquish™ Flex UHPLC Systems (Thermo Fisher Scientific, San Jose, CA, USA). Chromatographic separation was achieved using the following conditions: buffer A was acetonitrile; buffer B was 20 mM ammonium carbonate, 0.1% ammonium hydroxide. Gradient conditions were: linear gradient from 20% to 80% B; 20–20.5 min: from 80% to 20% B; 20.5–28 min: hold at 20% B. The column oven and autosampler tray were held at 25 °C and 4 °C, respectively.
Mass spectrometry data acquisition was performed using a QExactive benchtop orbitrap mass spectrometer equipped with an Ion Max source and a HESI II probe (Thermo Fisher Scientific, San Jose, CA, USA) and was performed in positive and negative ionization mode in a range of m/z = 70–1000, with the resolution set at 70,000, the AGC target at 1 × 10^6, and the maximum injection time (Max IT) at 20 msec. For nucleotide tSIM scans, the resolution was set at 70,000, the AGC target was 1 × 10^5, and the max IT was 100 msec.
Manual curation and integration of chromatographic peaks were performed with TraceFinder 4.1 (Thermo Fisher Scientific, Waltham, MA, USA) using a 5 ppm mass tolerance and referencing an in-house library of chemical standards. Data from TraceFinder were further consolidated and normalized with an in-house R script: (https://github.com/FrozenGas/KanarekLabTraceFinderRScripts/blob/main/MS_data_script_v2.4_20221018.R (accessed on 22 November 2022)). Briefly, this script performs normalization and quality control steps: (1) extracts and combines the peak areas from TraceFinder output .csvs; (2) calculates and normalizes to an averaged factor from all mean-centered chromatographic peak areas of isotopically labeled amino acids internal standards within each sample; (3) filters out low-quality metabolites based on user inputted cut-offs calculated from pool reinjections and pool dilutions; (4) calculates and normalizes for biological material amounts based on the total integrated peak area values of high-confidence metabolites. […]

DHFR in MDA-MB-468 cells = system: T1, DHFR in MDA-MB-468 cells; assay: DHFR accumulation assay (Western blot); type: cell-based, Human; conditions: for Fold increase in DHFR levels: 24 h
T1 construct: reactions containing 55 μg MDA-MB-468 lysate; endogenous in cells; host or cells: MDA-MB-468
Description: Trypsinized MDA-MB-468 cells were seeded into 6-well plates at a density of 300,000 cells per 2 mL of media and allowed to adhere for 24 h. […] The final concentration of DMSO in each well was 1%. A DMSO-only control was also performed on each individual plate. Cells were then trypsinized, harvested by centrifugation at 200× g for 5 min at 4 °C, and washed once with PBS/PIC. Cell pellets were flash frozen using an ethanol/dry ice bath and stored at −80 °C prior to lysis. Each cell pellet was lysed as described above using 50 μL PBS/PIC per cell pellet. Samples were then analyzed by Western blot, as described below, using 30 μg lysate per lane. Band intensities of DHFR were normalized to the loading control SOD1 via densitometry using ImageJ (Fiji), and each DHFR band was normalized to the DMSO control. Fold-change in DHFR band intensity was plotted against inhibitor concentration (μM). Each experiment was performed two separate times as individual biological replicates (n = 2).
Proteins were electrophoretically separated on a 10% gel, and proteins were transferred to a methanol-activated PVDF membrane using the Trans-Blot Turbo transfer system (Bio-Rad) for 7 min at 1.3 A and 25 V in Trans-Blot Turbo transfer buffer (Bio-Rad). Membranes were blocked with 5% skim milk w/v in TBS-T (20 mM Tris, 150 mM NaCl, 0.05% Tween-20) for 1 h at room temperature. […] The horseradish peroxidase (HRP)-linked anti-mouse IgG secondary antibody (NA931, Cytiva; 1:3000) was added for 1 h at room temperature in 5% skim milk w/v in TBS-T. Signal was detected by adding Immobilon Forte Western HRP Substrate (Millipore), and chemiluminescence was captured on a Sapphire Biomolecular Imager (Azure Biosystems). Band densities were determined using ImageJ (Fiji). The band intensity of DHFR was normalized to the thermostable loading control SOD1 [22].

[1] = system: STAT3 transcriptional activity in U3A STAT3 luciferase reporter cell line; assay: STAT3 luciferase reporter assay; type: cell-based; conditions: for Inhibition of STAT3-dependent luciferase activity: 0.02–20 μM, OSM 10 ng/mL
Description: The STAT3-dependent luciferase reporter assay was performed as previously reported. One day prior to the assay, the U3A STAT3 luciferase reporter cell line was seeded in a 96-well plate at 8000 cells per well. Cells were then incubated with compounds at the indicated concentration, and each well was treated with either media control or stimulated with 10 ng/mL oncostatin M (OSM) and incubated for six hours at 37 °C. Luciferase activity was quantified using the Bright-Glo Luciferase Assay system (Promega) and a Luminoskan Ascent Luminometer (Labsystems). Collected luminescence readings were normalized to DMSO-treated controls. Stimulation with (+OSM) gave luminescence values around 2.5 times that of the unstimulated control (−OSM). Quadruplicates were averaged and plotted with error bars representing standard deviation. Each condition was performed in quadruplicate on two separate occasions (n = 2) with representative data shown. Statistical significance was determined using Ordinary one-way ANOVA with a Dunnett multiple comparison test.

SMILES | AICAR levels with FA treatment (MDA-MB-231 cells) | Orotate levels with FA supplementation (MDA-MB-231 cells) | AICAR levels (MDA-MB-231 cells) | Orotate levels (MDA-MB-231 cells) | UDP level (MDA-MB-231 cells) | Fold increase in DHFR levels (DHFR in MDA-MB-468 cells; MDA-MB-468, 10 nM) | Fold increase in DHFR levels (DHFR in MDA-MB-468 cells; MDA-MB-468, 1 µM) | Concentration giving notable accumulation of DHFR (DHFR in MDA-MB-468 cells; MDA-MB-468, 24 h, range 0.012–1 nM) | Inhibition of STAT3-dependent luciferase activity [1] | DHFR accumulation (DHFR in MDA-MB-468 cells; MDA-MB-468, 24 h) | STAT3-dependent luciferase activity ([1]; 20 nM, U3A)
CC1(C)N=C(N)N=C(N)N1c1ccc(CCCCc2ccc(S(=O)(=O)F)cc2)c(Cl)c1 [compound 127159] | further increased AICAR | orotate remained elevated in the presence of FA | increased slightly, yet significantly | stark increase in orotate levels | not upon treatment with MTX and 127159 alone | 10 fold | 30 fold | 0.33 nM | do not reach full STAT3 inhibition until µM concentrations | – | –
CC1(C)N=C(N)N=C(N)N1c1ccc(Cl)cc1 [Cyc, Cycloguanil] | returned AICAR to the same levels as vehicle controls | returned orotate to vehicle control levels | much larger increases in AICAR | decreased or statistically insignificant changes in orotate levels | significantly depleted | – | – | – | potent inhibition of luciferase activity | required higher concentrations to induce DHFR accumulation; also recorded: failed to induce DHFR accumulation at low nM concentrations | significantly inhibited
CCc1nc(N)nc(N)c1-c1ccc(Cl)cc1 [Pyr, Pyrimethamine] | returned AICAR to the same levels as vehicle controls | returned orotate to vehicle control levels | much larger increases in AICAR | decreased or statistically insignificant changes in orotate levels | significantly depleted | – | – | – | do not reach full STAT3 inhibition until µM concentrations | required higher concentrations to induce DHFR accumulation | –
